The values below come from patent publication US20050227994A1, “Decomposition inhibitor for extracellular matrix of cartilage” (Shionogi & Co., Ltd., priority 2002, published 2005).

A value given as a limit tells only on which side of the number the result lay.

The experiment has as its target T1, MMP-13 (Homo sapiens, UniProt P45452).
T1 construct: catalytic domain (^104Tyr˜^267Gly) was amplified with RT-PCR; His-tag; enterokinase digestion-site; made in house
As to the kind of experiment: Assay for inhibitory activities on MMP-13. In kind it is biochemical. The following applies: catalytic domain, substrate MOCAc-Pro-Leu-Gly-Leu-A2Pr(DNP)-Ala-Arg-NH2; read-out: MMP-13 (IC50μM). Here is the method: In regard to MMP-13, mRNA was prepared from carcinoma cell SW1353 derived from human cartilage stimulate by IL-1, TNF and catalytic domain (^[…]) was amplified with RT-PCR. This was cloned in Escherichia. coli expression vector […] inserted with His-tag sequence and enterokinase digestion-site, induced and expressed by IPTG (Isopropyl-β-D-thiogalactopyranoside) and expressed in a insoluble fraction. Isolation of MMP-13 from an insoluble fraction was carried out by dissolving in modifier (6M urea) by a usual method and purification with metal chelate chromatography (Ni […] Sepharose). […] The enzymatic activity on MMP was analyzed by the method described in “C. Graham Knight, Frances Willenbrock and Gillian Murphy: A novel coumarin-labelled peptide for sensitive continuous assays of the matrix metalloproteinases: […] The substrate: MOCAc-[…] was purchased from Peptide Institute, Inc., Osaka, Japan.
`CC(C)[C@H](NS(=O)(=O)c1ccc(-c2ccc(N3CCCC3)cc2)s1)C(=O)O` [Compound F-18]: the IC50 worked out at 0.032 µM.

As for `C=Cc1ccc(-c2ccc(S(=O)(=O)N[C@@H](C(=O)O)C(C)C)s2)cc1` [Compound F-26], the IC50 is 0.0101 µM.

Turning to `COc1ccc(-c2cnc(-c3ccc(S(=O)(=O)N[C@H](CCC(=O)O)C(=O)O)cc3)o2)cc1` [Compound B-1], the IC50 was found to be 0.0199 µM.

Take `CC(=O)Oc1ccc(C#Cc2ccc(S(=O)(=O)N[C@H](Cc3c[nH]c4ccccc34)C(=O)O)cc2)cc1` [Compound G-1]: the IC50 came to 0.046 µM.

As for `Cc1ccc(C#Cc2ccc(S(=O)(=O)N[C@H](CCC(=O)O)C(=O)O)s2)cc1` [Compound H-8], the IC50 was 0.151 µM.

Consider `COc1ccc(-c2cnc(-c3ccc(S(=O)(=O)N[C@H](CCSC)C(=O)O)cc3)s2)cc1` [Compound A-3], for which the IC50 was determined as 0.0023 µM.

For `CSc1ccc(-c2ccc(-c3ccc(S(=O)(=O)N[C@@H](C(=O)O)C(C)C)s3)s2)cc1` [Compound L-2], the IC50 was determined as 0.0147 µM.

On to `Cc1ccc(-c2ccc(-c3ccc(S(=O)(=O)N[C@H](Cc4ccccc4)C(=O)O)s3)s2)cc1` [Compound L-3], for which the IC50 turned out to be 0.109 µM.

With `CSc1ccc(-c2cnc(-c3ccc(S(=O)(=O)N[C@@H](C)C(=O)O)cc3)s2)cc1` [Compound A-27], the IC50 is 0.001 µM.

As to `COc1ccc(-c2ccc(S(=O)(=O)NC(C(=O)O)C(C)C)s2)cc1` (stereo not shown) [Compound F-2], the IC50 was 0.53 µM.

In the case of `CCCCc1ccc(-c2noc(-c3ccc(S(=O)(=O)N[C@@H](C(=O)O)C(C)C)cc3)n2)cc1` [Compound D-1], the IC50 is 0.028 µM.

As to `Cc1ccc(-c2ccc(S(=O)(=O)N[C@@H](Cc3c[nH]c4ccccc34)C(=O)O)s2)cc1` [Compound F-19], the IC50 stood at 0.63 µM.

Turning to `CSc1ccc(-c2ccc(S(=O)(=O)N[C@@H](CCC(=O)O)C(=O)O)cc2)cc1` [Compound E-11], the IC50 amounted to 0.0091 µM.

As to `O=C(O)[C@@H](Cc1c[nH]c2ccccc12)NS(=O)(=O)c1ccc(-c2ccc(F)cc2)cc1` [Compound E-27], the IC50 is 0.036 µM.

Turning to `CCC(C)[C@H](NS(=O)(=O)c1ccc(-c2ncc(-c3ccc(OC)cc3)s2)cc1)C(=O)O` (stereo partly shown) [Compound A-2], the IC50 turned out to be 0.0013 µM.

On to `O=C(O)[C@@H](Cc1ccccc1)NS(=O)(=O)c1ccc(C#Cc2ccc3c(c2)OCO3)s1` [Compound H-1], for which the IC50 came out at 0.044 µM.

Consider `CC(C)C[C@@H](NS(=O)(=O)c1ccc(-c2ccc(N3CCCCC3)cc2)s1)C(=O)O` [Compound F-16], for which the IC50 stood at 0.25 µM.

Take `O=C(O)[C@@H](Cc1ccccc1)NS(=O)(=O)c1ccc(-c2nc(-c3ccc4ccccc4c3)no2)cc1` [Compound D-5]: the IC50 is 1.01 µM.

Take `O=C(O)[C@@H](Cc1c[nH]c2ccccc12)NS(=O)(=O)c1ccc(-c2ncc(-c3ccc(F)c(F)c3)s2)cc1` [Compound A-14]: the IC50 came out at 0.0061 µM.

Regarding `CSc1ccc(-c2ccc(S(=O)(=O)NC(C(=O)O)C(C)C)cc2)s1` (stereo not shown) [Compound K-1], the IC50 was found to be 0.0202 µM.

Regarding `CSc1ccc(-c2ccc(S(=O)(=O)N[C@H](CCC(=O)O)C(=O)O)cc2)cc1` [Compound E-10], the IC50 was determined as 0.0236 µM.

As to `O=C(O)[C@@H](Cc1ccccc1)NS(=O)(=O)c1ccc(C#Cc2ccc3ccccc3c2)cc1` [Compound G-5], the IC50 is greater than 10 µM.

For the compound `O=C(O)[C@@H](Cc1ccccc1)NS(=O)(=O)c1ccc(-c2ccc(-n3cccc3)cc2)s1` [Compound F-14], the IC50 is 0.0104 µM.

Regarding `COc1ccc2cc(-c3nc(-c4ccc(S(=O)(=O)N[C@H](C)C(=O)O)cc4)cs3)ccc2c1` [Compound M-2], the IC50 was greater than 10 µM.

Consider `CCc1ccc(-c2nc(-c3ccc(S(=O)(=O)N[C@H](Cc4ccccc4)C(=O)O)cc3)no2)cc1` [Compound C-2], for which the IC50 worked out at 0.027 µM.

For the compound `C[C@@H](NS(=O)(=O)c1ccc(C#Cc2ccc(F)c(F)c2)s1)C(=O)O` [Compound H-11], the IC50 amounted to 0.573 µM.

As for `CSc1ccc(-c2ccc(S(=O)(=O)NC(C)C(=O)O)cc2)cc1` (stereo not shown) [Compound E-4], the IC50 stood at 0.0209 µM.

On to `CSCC[C@@H](NS(=O)(=O)c1ccc(-c2ncc(-c3ccc(Cl)c(Cl)c3)s2)cc1)C(=O)O` [Compound A-15], for which the IC50 was 0.0135 µM.

Regarding `O=C(O)C[C@@H](NS(=O)(=O)c1ccc(-c2ncc(-c3ccc(Cl)c(Cl)c3)s2)cc1)C(=O)O` [Compound A-16], the IC50 turned out to be 0.0154 µM.

`CSc1ccc(-c2ccc(S(=O)(=O)NC(Cc3ccccc3)C(=O)O)cc2)cc1` (stereo not shown) [Compound E-30]: the IC50 turned out to be 0.0026 µM.

With `CCC(C)C(NS(=O)(=O)c1ccc(-c2ccc(SC)cc2)cc1)C(=O)O` (stereo not shown) [Compound E-5], the IC50 was determined as 0.0022 µM.

Take `Cc1ccc(C#Cc2ccc(S(=O)(=O)N[C@H](Cc3c[nH]c4cccc(O)c34)C(=O)O)s2)cc1` [Compound H-5]: the IC50 was 0.0328 µM.

With `CCSc1ccc(-c2ccc(S(=O)(=O)NC(C)C(=O)O)cc2)cc1` (stereo not shown) [Compound E-14], the IC50 amounted to 0.0135 µM.

On to `CC(C)[C@H](NS(=O)(=O)c1ccc(-c2ncc(-c3ccc(Br)cc3)s2)cc1)C(=O)O` [Compound A-5], for which the IC50 was 0.002 µM.

On to `CSCC[C@H](NS(=O)(=O)c1ccc(-c2ccc(SC)cc2)cc1)C(=O)O` [Compound E-8], for which the IC50 was determined as 0.0105 µM.

As to `CSc1ccc(-c2nc(-c3ccc(S(=O)(=O)N[C@H](Cc4ccccc4)C(=O)O)cc3)no2)cc1` [Compound C-10], the IC50 was determined as 0.0174 µM.

With `CC(C)(C)c1ccc(-c2ccc(S(=O)(=O)NC(Cc3ccccc3)C(=O)O)cc2)cc1` (stereo not shown) [Compound E-25], the IC50 worked out at 0.39 µM.

As for `O=C(O)[C@H](Cc1ccccc1)NS(=O)(=O)c1ccc(-c2noc(-c3ccc4cc(Br)ccc4c3)n2)cc1` [Compound C-9], the IC50 is greater than 10 µM.

Consider `CC(C)C[C@H](NS(=O)(=O)c1ccc(-c2ncc(-c3ccc(F)cc3)s2)cc1)C(=O)O` [Compound A-11], for which the IC50 came out at 0.0114 µM.

With `CC(C)C[C@H](NS(=O)(=O)c1ccc(-c2ncc(-c3ccc(Cl)cc3)s2)cc1)C(=O)O` [Compound A-9], the IC50 was found to be 0.0065 µM.

As to `O=C(O)[C@@H]1[C@@H](NS(=O)(=O)c2ccc(-c3ccc(N4CCCC4)cc3)s2)[C@H]2C=C[C@@H]1C2` [Compound O-10], the IC50 came to 0.6 µM.

In the case of `O=C(O)[C@H](Cc1ccccc1)NS(=O)(=O)c1ccc(C#Cc2ccc3ccccc3c2)s1` [Compound H-9], the IC50 was greater than 10 µM.

As to `CCCCc1ccc(-n2nnc(-c3ccc(S(=O)(=O)N[C@H](Cc4ccccc4)C(=O)O)cc3)n2)cc1` [Compound I-5], the IC50 is 0.0179 µM.

With `Cc1ccc(-c2ccc(-c3ccc(S(=O)(=O)NCC(=O)O)s3)s2)cc1` [Compound L-4], the IC50 is 0.281 µM.

As for `CC(=O)NCCc1ccc(-n2nnc(-c3ccc(S(=O)(=O)N[C@H](Cc4ccccc4)C(=O)O)cc3)n2)cc1` [Compound I-2], the IC50 stood at 0.01 µM.

On to `CCSc1ccc(-c2ccc(S(=O)(=O)NC(Cc3ccccc3)C(=O)O)cc2)cc1` (stereo not shown) [Compound E-16], for which the IC50 was 0.0142 µM.

On to `CC(C)c1ccc(-c2nc(-c3ccc(S(=O)(=O)N[C@H](C)C(=O)O)cc3)no2)cc1` [Compound C-3], for which the IC50 stood at 0.0113 µM.

In the case of `O=C(O)[C@@H](Cc1ccccc1)NS(=O)(=O)c1ccc(C#CC2=CCCCC2)s1` [Compound H-14], the IC50 came out at 0.153 µM.

As for `CNc1ccc(-c2ccc(S(=O)(=O)N[C@H](Cc3ccccc3)C(=O)O)s2)cc1` [Compound F-12], the IC50 was found to be 0.0318 µM.
